Source: PubChem BioAssay (NCI)
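Compound exposure: 48 hours, 5 concentrations, 96-well plates. Abbreviation: GI50, concentration required for 50% inhibition of growth. At the TGI there is no net growth.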

How the values were obtained:
Assay in all cases: DTP human tumour cell line panel, 48 h; in the data active = GI50 below about 0.43 µM; inactive = the rest
IGROV1 ovarian = tested on: IGROV1 ovarian
HCC-2998 colon = tested on: HCC-2998 colon
SK-MEL-2 melanoma = tested on: SK-MEL-2 melanoma
UACC-257 melanoma = tested on: UACC-257 melanoma
HCT-116 colon = tested on: HCT-116 colon
MOLT-4 leukemia = tested on: MOLT-4 leukemia
NCI-H226 lung = tested on: NCI-H226 lung
HT29 colon = tested on: HT29 colon
HOP-92 NSCLC = tested on: HOP-92 NSCLC
PC-3 prostate = tested on: PC-3 prostate
OVCAR-3 ovarian = tested on: OVCAR-3 ovarian
K-562 leukemia = tested on: K-562 leukemia
UO-31 renal = tested on: UO-31 renal
M14 melanoma = tested on: M14 melanoma
COLO 205 colon = tested on: COLO 205 colon
SF-539 CNS = tested on: SF-539 CNS
T-47D breast = tested on: T-47D breast
RXF 393 renal = tested on: RXF 393 renal
MDA-MB-231 breast = tested on: MDA-MB-231 breast
786-0 renal = tested on: 786-0 renal
NCI/ADR-RES ovarian = tested on: NCI/ADR-RES ovarian
OVCAR-8 ovarian = tested on: OVCAR-8 ovarian
SW-620 colon = tested on: SW-620 colon
NCI-H460 lung = tested on: NCI-H460 lung
SNB-75 CNS = tested on: SNB-75 CNS
CCRF-CEM leukemia = tested on: CCRF-CEM leukemia
NCI-H23 lung = tested on: NCI-H23 lung
DU-145 prostate = tested on: DU-145 prostate
SR leukemia = tested on: SR leukemia
A498 renal = tested on: A498 renal
LOX IMVI melanoma = tested on: LOX IMVI melanoma
OVCAR-4 ovarian = tested on: OVCAR-4 ovarian
KM12 colon = tested on: KM12 colon
OVCAR-5 ovarian = tested on: OVCAR-5 ovarian
TK-10 renal = tested on: TK-10 renal
HL-60(TB) leukemia = tested on: HL-60(TB) leukemia
SNB-19 CNS = tested on: SNB-19 CNS
CAKI-1 renal = tested on: CAKI-1 renal
UACC-62 melanoma = tested on: UACC-62 melanoma
U251 CNS = tested on: U251 CNS
SK-MEL-5 melanoma = tested on: SK-MEL-5 melanoma
RPMI-8226 leukemia = tested on: RPMI-8226 leukemia
SF-295 CNS = tested on: SF-295 CNS
MCF7 breast = tested on: MCF7 breast
MDA-MB-435 = tested on: MDA-MB-435
EKVX NSCLC = tested on: EKVX NSCLC
HS 578T breast = tested on: HS 578T breast
HOP-62 NSCLC = tested on: HOP-62 NSCLC
SK-OV-3 ovarian = tested on: SK-OV-3 ovarian
A549 NSCLC = tested on: A549 NSCLC
HCT-15 colon = tested on: HCT-15 colon
MALME-3M melanoma = tested on: MALME-3M melanoma
BT-549 breast = tested on: BT-549 breast
SN12C renal = tested on: SN12C renal
SK-MEL-28 melanoma = tested on: SK-MEL-28 melanoma
NCI-H522 lung = tested on: NCI-H522 lung
SF-268 CNS = tested on: SF-268 CNS
ACHN renal = tested on: ACHN renal
MDA-N = tested on: MDA-N

COC(=O)CCC1CCC(c2cc(F)ccc2F)(S(=O)(=O)c2ccc(Cl)cc2)CC1 (centres undefined)
> 100 µM: TGI (IGROV1 ovarian) | TGI (HCC-2998 colon) | TGI (SK-MEL-2 melanoma) | TGI (UACC-257 melanoma) | TGI (HCT-116 colon) | TGI (MOLT-4 leukemia) | TGI (NCI-H226 lung) | TGI (HT29 colon) | TGI (HOP-92 NSCLC) | TGI (PC-3 prostate) | TGI (OVCAR-3 ovarian) | TGI (K-562 leukemia) | TGI (UO-31 renal) | TGI (M14 melanoma) | TGI (COLO 205 colon) | TGI (SF-539 CNS) | TGI (T-47D breast) | TGI (RXF 393 renal) | TGI (MDA-MB-231 breast) | TGI (786-0 renal) | TGI (NCI/ADR-RES ovarian) | TGI (OVCAR-8 ovarian) | TGI (SW-620 colon) | TGI (NCI-H460 lung) | TGI (SNB-75 CNS) | TGI (CCRF-CEM leukemia) | TGI (NCI-H23 lung) | TGI (DU-145 prostate) | TGI (SR leukemia) | TGI (A498 renal) | TGI (LOX IMVI melanoma) | TGI (OVCAR-4 ovarian) | TGI (KM12 colon) | TGI (OVCAR-5 ovarian) | TGI (TK-10 renal) | TGI (HL-60(TB) leukemia) | TGI (SNB-19 CNS) | TGI (CAKI-1 renal) | TGI (UACC-62 melanoma) | TGI (U251 CNS) | TGI (SK-MEL-5 melanoma) | TGI (RPMI-8226 leukemia) | TGI (SF-295 CNS) | TGI (MCF7 breast) | TGI (MDA-MB-435) | TGI (EKVX NSCLC) | TGI (HS 578T breast) | TGI (HOP-62 NSCLC) | TGI (SK-OV-3 ovarian) | TGI (A549 NSCLC) | TGI (HCT-15 colon) | TGI (MALME-3M melanoma) | TGI (BT-549 breast) | TGI (SN12C renal) | TGI (SK-MEL-28 melanoma) | TGI (NCI-H522 lung) | TGI (SF-268 CNS) | TGI (ACHN renal)
inactive: GI50 (IGROV1 ovarian) > 100 µM | GI50 (HCC-2998 colon) > 100 µM | GI50 (SK-MEL-2 melanoma) 62 µM | GI50 (UACC-257 melanoma) 48.9 µM | GI50 (HCT-116 colon) 38.2 µM | GI50 (MOLT-4 leukemia) 49.8 µM | GI50 (NCI-H226 lung) 86.8 µM | GI50 (HT29 colon) 82.2 µM | GI50 (HOP-92 NSCLC) 15.4 µM | GI50 (PC-3 prostate) 30.7 µM | GI50 (OVCAR-3 ovarian) 83.7 µM | GI50 (K-562 leukemia) > 100 µM | GI50 (UO-31 renal) 28 µM | GI50 (M14 melanoma) 55.4 µM | GI50 (COLO 205 colon) > 100 µM | GI50 (SF-539 CNS) > 100 µM | GI50 (T-47D breast) 39.3 µM | GI50 (RXF 393 renal) 55.4 µM | GI50 (MDA-MB-231 breast) > 100 µM | GI50 (786-0 renal) > 100 µM | GI50 (NCI/ADR-RES ovarian) > 100 µM | GI50 (OVCAR-8 ovarian) > 100 µM | GI50 (SW-620 colon) > 100 µM | GI50 (NCI-H460 lung) 52.1 µM | GI50 (SNB-75 CNS) > 100 µM | GI50 (CCRF-CEM leukemia) > 100 µM | GI50 (NCI-H23 lung) 42.5 µM | GI50 (DU-145 prostate) > 100 µM | GI50 (SR leukemia) > 100 µM | GI50 (A498 renal) 40.4 µM | GI50 (LOX IMVI melanoma) 91.5 µM | GI50 (OVCAR-4 ovarian) 45.5 µM | GI50 (KM12 colon) 62.1 µM | GI50 (OVCAR-5 ovarian) > 100 µM | GI50 (TK-10 renal) > 100 µM | GI50 (HL-60(TB) leukemia) 45.3 µM | GI50 (SNB-19 CNS) > 100 µM | GI50 (CAKI-1 renal) 6 µM | GI50 (UACC-62 melanoma) 69.4 µM | GI50 (U251 CNS) > 100 µM | GI50 (SK-MEL-5 melanoma) 28.4 µM | GI50 (RPMI-8226 leukemia) 41.9 µM | GI50 (SF-295 CNS) > 100 µM | GI50 (MCF7 breast) 70.2 µM | GI50 (MDA-MB-435) 88.5 µM | GI50 (EKVX NSCLC) 61.2 µM | GI50 (HS 578T breast) > 100 µM | GI50 (HOP-62 NSCLC) > 100 µM | GI50 (SK-OV-3 ovarian) > 100 µM | GI50 (A549 NSCLC) 64.4 µM | GI50 (HCT-15 colon) > 100 µM | GI50 (MALME-3M melanoma) 67.1 µM | GI50 (BT-549 breast) 70.6 µM | GI50 (SN12C renal) > 100 µM | GI50 (SK-MEL-28 melanoma) > 100 µM | GI50 (NCI-H522 lung) 62.4 µM | GI50 (SF-268 CNS) > 100 µM | GI50 (ACHN renal) > 100 µM

C/C(=N\NC(=O)c1ccncc1)c1ccccc1F
> 10 µM: TGI (IGROV1 ovarian) | TGI (HCC-2998 colon) | TGI (SK-MEL-2 melanoma) | TGI (MDA-N) | TGI (HCT-116 colon) | TGI (MOLT-4 leukemia) | TGI (NCI-H226 lung) | TGI (HOP-92 NSCLC) | TGI (PC-3 prostate) | TGI (OVCAR-3 ovarian) | TGI (K-562 leukemia) | TGI (UO-31 renal) | TGI (M14 melanoma) | TGI (COLO 205 colon) | TGI (SF-539 CNS) | TGI (T-47D breast) | TGI (RXF 393 renal) | TGI (786-0 renal) | TGI (NCI/ADR-RES ovarian) | TGI (OVCAR-8 ovarian) | TGI (SW-620 colon) | TGI (NCI-H460 lung) | TGI (SNB-75 CNS) | TGI (CCRF-CEM leukemia) | TGI (NCI-H23 lung) | TGI (SR leukemia) | TGI (A498 renal) | TGI (LOX IMVI melanoma) | TGI (KM12 colon) | TGI (OVCAR-5 ovarian) | TGI (TK-10 renal) | TGI (HL-60(TB) leukemia) | TGI (SNB-19 CNS) | TGI (CAKI-1 renal) | TGI (U251 CNS) | TGI (SK-MEL-5 melanoma) | TGI (RPMI-8226 leukemia) | TGI (SF-295 CNS) | TGI (MCF7 breast) | TGI (HOP-62 NSCLC) | TGI (SK-OV-3 ovarian) | TGI (A549 NSCLC) | TGI (HCT-15 colon) | TGI (MALME-3M melanoma) | TGI (SN12C renal) | TGI (SK-MEL-28 melanoma) | TGI (SF-268 CNS) | TGI (ACHN renal)
